The source made the active and inactive calls. The calls are words filed in the database; no cut-off is given here.
Key:
HRMC [1] = test: Anti-fibrotic activity in human HRMC cells assessed as downregulation of COL16A1 mRNA expression at 1 uM pretreated with compound for 30 mins followed by TGF-beta stimulation and measured after 24 hrs by qRT-PCR analysis; assay type: functional, cell-based; conditions: time 24.5 hrs
HRMC [2] = test: Anti-fibrotic activity in human HRMC cells assessed as downregulation of COL4A1 mRNA expression at 1 uM pretreated with compound for 30 mins followed by TGF-beta stimulation and measured after 24 hrs by qRT-PCR analysis; assay type: functional, cell-based; conditions: time 24.5 hrs
HRMC [3] = test: Anti-fibrotic activity in human HRMC cells assessed as downregulation of CTGF mRNA expression at 1 uM pretreated with compound for 30 mins followed by TGF-beta stimulation and measured after 24 hrs by qRT-PCR analysis; assay type: functional, cell-based; conditions: time 24.5 hrs
HRMC [4] = test: Anti-fibrotic activity in human HRMC cells assessed as downregulation of IL11 mRNA expression at 1 uM pretreated with compound for 30 mins followed by TGF-beta stimulation and measured after 24 hrs by qRT-PCR analysis; assay type: functional, cell-based; conditions: time 24.5 hrs
LX-2 [5] = test: Anti-fibrotic activity in human LX2 cells assessed as downregulation of ACTA2 mRNA expression at 1 uM pretreated with compound for 30 mins followed by TGF-beta stimulation and measured after 24 hrs by qRT-PCR analysis; assay type: functional, cell-based; conditions: time 24.5 hrs
LX-2 [6] = test: Anti-fibrotic activity in human LX2 cells assessed as downregulation of COL1A1 mRNA expression at 1 uM pretreated with compound for 30 mins followed by TGF-beta stimulation and measured after 24 hrs by qRT-PCR analysis; assay type: functional, cell-based; conditions: time 24.5 hrs
LX-2 [7] = test: Anti-fibrotic activity in human LX2 cells assessed as downregulation of CTGF mRNA expression at 1 uM pretreated with compound for 30 mins followed by TGF-beta stimulation and measured after 24 hrs by qRT-PCR analysis; assay type: functional, cell-based; conditions: time 24.5 hrs
LX-2 [8] = test: Anti-fibrotic activity in human LX2 cells assessed as downregulation of PAI-1 mRNA expression at 1 uM pretreated with compound for 30 mins followed by TGF-beta stimulation and measured after 24 hrs by qRT-PCR analysis; assay type: functional, cell-based; conditions: time 24.5 hrs
NHCF-V [9] = test: Anti-fibrotic activity in human NHCF-V cells assessed as downregulation of TGF-beta1 mRNA expression at 1 uM pretreated with compound for 30 mins followed by TGF-beta stimulation and measured after 24 hrs by qRT-PCR analysis; assay type: functional, cell-based; conditions: time 24.5 hrs
NHCF-V [10] = test: Anti-fibrotic activity in human NHCF-V cells assessed as downregulation of ACTA2 mRNA expression at 1 uM pretreated with compound for 30 mins followed by TGF-beta stimulation and measured after 24 hrs by qRT-PCR analysis; assay type: functional, cell-based; conditions: time 24.5 hrs
NHCF-V [11] = test: Anti-fibrotic activity in human NHCF-V cells assessed as downregulation of CTGF mRNA expression at 1 uM pretreated with compound for 30 mins followed by TGF-beta stimulation and measured after 24 hrs by qRT-PCR analysis; assay type: functional, cell-based; conditions: time 24.5 hrs
NHCF-V [12] = test: Anti-fibrotic activity in human NHCF-V cells assessed as downregulation of PAI-1 mRNA expression at 1 uM pretreated with compound for 30 mins followed by TGF-beta stimulation and measured after 24 hrs by qRT-PCR analysis; assay type: functional, cell-based; conditions: time 24.5 hrs
Mus musculus [13] = test: (§1) Anti-fibrotic activity against CCl4-induced liver fibrosis C57BL/6 mouse model assessed as reduction in liver bridging fibrosis at 250 mg/kg, ig administered for 27 days with first injection started at 24 hrs post-first CCl4 challenge and measured at 48 hrs post-last administration by Masson's trichrome staining based analysis; assay type: functional, organism-based; conditions: time 29.0 day
Mus musculus [14] = test: as §1, with “200” for “250”; assay type: functional, organism-based; conditions: time 29.0 day
Mus musculus [15] = test: Anti-fibrotic activity against CCl4-induced liver fibrosis C57BL/6 mouse model assessed as reduction in serum ALT level at 200 mg/kg, ig administered for 27 days with first injection started at 24 hrs post-first CCl4 challenge and measured at 48 hrs post-last administration; assay type: functional, organism-based; conditions: time 29.0 day
Mus musculus [16] = test: Anti-fibrotic activity against CCl4-induced liver fibrosis C57BL/6 mouse model assessed as reduction in serum TBIL level at 200 mg/kg, ig administered for 27 days with first injection started at 24 hrs post-first CCl4 challenge and measured at 48 hrs post-last administration; assay type: functional, organism-based; conditions: time 29.0 day
Mus musculus [17] = test: Anti-fibrotic activity against CCl4-induced liver fibrosis C57BL/6 mouse model assessed as reduction in serum IBIL level at 200 mg/kg, ig administered for 27 days with first injection started at 24 hrs post-first CCl4 challenge and measured at 48 hrs post-last administration; assay type: functional, organism-based; conditions: time 29.0 day
Mus musculus [18] = test: (§2) Anti-fibrotic activity against BLM-induced pulmonary fibrosis C57BL/6 mouse model assessed as reduction in lung fibrosis at 200 mg/kg administered via gavage for 13 days with first injection started at 24 hrs post-first BLM challenge and measured after 24 hrs by Ashcroft score based analysis; assay type: functional, organism-based; conditions: time 14.0 day
LX-2 [19] = test: Anti-fibrotic activity in human LX2 cells assessed as downregulation of ACTA2 mRNA expression at 0.1 to 1 uM pretreated with compound for 30 mins followed by TGF-beta stimulation and measured after 24 hrs by qRT-PCR analysis; assay type: functional, cell-based; conditions: dose 0.1-1 µM, time 24.5 hrs
LX-2 [20] = test: Anti-fibrotic activity in human LX2 cells assessed as downregulation of CTGF mRNA expression at 0.1 to 1 uM pretreated with compound for 30 mins followed by TGF-beta stimulation and measured after 24 hrs by qRT-PCR analysis; assay type: functional, cell-based; conditions: dose 0.1-1 µM, time 24.5 hrs
[21] = Anti-fibrotic activity in human NHCF-V cells assessed as downregulation of CTGF mRNA expression at 0.1 to 1 uM pretreated with compound for 30 mins followed by TGF-beta stimulation and measured after 24 hrs by qRT-PCR analysis; assay type: functional; conditions: dose 0.1-1 µM, time 24.5 hrs
[22] = Anti-fibrotic activity in human NHCF-V cells assessed as downregulation of ACTA2 mRNA expression at 0.1 to 1 uM pretreated with compound for 30 mins followed by TGF-beta stimulation and measured after 24 hrs by qRT-PCR analysis; assay type: functional; conditions: dose 0.1-1 µM, time 24.5 hrs
[23] = Anti-fibrotic activity in human NHCF-V cells assessed as downregulation of PAI-1 mRNA expression at 0.1 to 1 uM pretreated with compound for 30 mins followed by TGF-beta stimulation and measured after 24 hrs by qRT-PCR analysis; assay type: functional; conditions: dose 0.1-1 µM, time 24.5 hrs
Mus musculus [24] = test: Anti-fibrotic activity against CCl4-induced liver fibrosis C57BL/6 mouse model assessed as reduction in serum hydroxyproline content at 200 mg/kg, ig administered for 27 days with first injection started at 24 hrs post-first CCl4 challenge and measured at 48 hrs post-last administration; assay type: functional, organism-based; conditions: time 29.0 day
Mus musculus [25] = test: as §2, with “lung inflammation” for “lung fibrosis”, “by H and E staining” for “by Ashcroft score”, “based microscopic” for “based”; assay type: functional, organism-based; conditions: time 14.0 day
Mus musculus [26] = test: (§3) Anti-fibrotic activity against BLM-induced pulmonary fibrosis C57BL/6 mouse model assessed as reduction in area of lung fibrosis at 200 mg/kg administered via gavage for 13 days with first injection started at 24 hrs post-first BLM challenge and measured after 24 hrs by H and E staining based microscopic analysis; assay type: functional, organism-based; conditions: time 14.0 day
Mus musculus [27] = test: as §2, with “lung inflammation” for “lung fibrosis”, “by Masson's trichrome staining” for “by Ashcroft score”; assay type: functional, organism-based; conditions: time 14.0 day
Mus musculus [28] = test: as §3, with “Masson's trichrome” for “H and E”, “based” for “based microscopic”; assay type: functional, organism-based; conditions: time 14.0 day
Mus musculus [29] = test: Anti-fibrotic activity against BLM-induced pulmonary fibrosis C57BL/6 mouse model assessed as reduction in hydroxyproline content in lungs at 200 mg/kg administered via gavage for 13 days with first injection started at 24 hrs post-first BLM challenge and measured after 24 hrs; assay type: functional, organism-based; conditions: time 14.0 day

## NC(=O)C[S+]([O-])Cc1ccccc1 (centres undefined)
HRMC [1]
  Activity: inactive
HRMC [2]
  Activity: inactive
HRMC [3]
  Activity: inactive
HRMC [4]
  Activity: inactive
LX-2 [5]
  Activity: inactive
LX-2 [6]
  Activity: inactive
LX-2 [7]
  Activity: inactive
LX-2 [8]
  Activity: inactive
NHCF-V [9]
  Activity: inactive
NHCF-V [10]
  Activity: inactive
NHCF-V [11]
  Activity: inactive
NHCF-V [12]
  Activity: inactive

## CCC1(C[S+]([O-])c2cccc(F)c2)COC1 (centres undefined)
NHCF-V [12]
  Activity: Active

## Cc1ccc(=O)n(-c2ccccc2)c1
Mus musculus [13]
  Activity: Active

## CC1(C[S+]([O-])c2ccccc2)COC1 (centres undefined)
HRMC [1]
  Activity: inactive
HRMC [2]
  Activity: inactive
HRMC [3]
  Activity: inactive
HRMC [4]
  Activity: inactive
LX-2 [5]
  Activity: inactive
LX-2 [6]
  Activity: inactive
LX-2 [7]
  Activity: inactive
LX-2 [8]
  Activity: inactive
NHCF-V [9]
  Activity: inactive
NHCF-V [10]
  Activity: inactive
NHCF-V [11]
  Activity: inactive
NHCF-V [12]
  Activity: inactive
Mus musculus [14]
  Activity: inactive
Mus musculus [15]
  Activity: Active
Mus musculus [16]
  Activity: Active
Mus musculus [17]
  Activity: Active
Mus musculus [18]
  Activity: Active

## NC(=O)C[S+]([O-])c1cccc(F)c1 (centres undefined)
HRMC [1]
  Activity: inactive
HRMC [2]
  Activity: inactive
HRMC [3]
  Activity: inactive
HRMC [4]
  Activity: inactive
LX-2 [5]
  Activity: inactive
LX-2 [6]
  Activity: inactive
LX-2 [7]
  Activity: inactive
LX-2 [8]
  Activity: inactive
NHCF-V [9]
  Activity: inactive
NHCF-V [10]
  Activity: inactive
NHCF-V [11]
  Activity: inactive
NHCF-V [12]
  Activity: inactive

## CC1(C[S+]([O-])Cc2ccccc2)COC1 (centres undefined)
LX-2 [19]
  Activity: Active
LX-2 [20]
  Activity: Active
[21]
  inhibition (INH): <30%
[22]
  inhibition (INH): <30%
[23]
  inhibition (INH): <30%
HRMC [1]
  Activity: inactive
HRMC [2]
  Activity: inactive
HRMC [3]
  Activity: inactive
HRMC [4]
  Activity: inactive
Mus musculus [14]
  Activity: Active
Mus musculus [15]
  Activity: Active
Mus musculus [16]
  Activity: Active
Mus musculus [17]
  Activity: Active
Mus musculus [24]
  Activity: Active
Mus musculus [25]
  Activity: Active
Mus musculus [26]
  Activity: Active
Mus musculus [27]
  Activity: Active
Mus musculus [28]
  Activity: Active
Mus musculus [18]
  Activity: Active
Mus musculus [29]
  Activity: Active

## CC1(C[S+]([O-])c2cccc(F)c2)COC1 (centres undefined)
HRMC [1]
  Activity: Active

Reference: ChEMBL document CHEMBL5236593, “Design, synthesis and biological evaluation studies of novel anti-fibrosis agents bearing sulfoxide moiety” (2022)
